In patent US10040781B2, “Tank-binding kinase inhibitor compounds” (Gilead Sciences, Inc., priority 2014, dated 2018):

Columns and labels:
IKKε = IKKε (Homo sapiens (Human), UniProt Q14164); assay: IKKε TR-FRET enzymatic assay; assay type: biochemical; settings: read-out: IKKe IC50
hJAK2 = hJAK2 (Homo sapiens (Human), UniProt O60674); assay: hJAK2 LANCE TR-FRET enzymatic assay; assay type: biochemical; settings: read-out: JAK2 IC50
TBK1 = TBK1 (Homo sapiens (Human), UniProt Q9UHD2); assay: TBK1 TR-FRET enzymatic assay;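 note: phosphorylation of a biotinylated Ser/Thr peptide by purified full-length recombinant TBK1, read by TR-FRET after 240 min at 25 °C, IC50 is the geometric mean of at least four runs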
TBK1, sequence (Q9UHD2 whole entry): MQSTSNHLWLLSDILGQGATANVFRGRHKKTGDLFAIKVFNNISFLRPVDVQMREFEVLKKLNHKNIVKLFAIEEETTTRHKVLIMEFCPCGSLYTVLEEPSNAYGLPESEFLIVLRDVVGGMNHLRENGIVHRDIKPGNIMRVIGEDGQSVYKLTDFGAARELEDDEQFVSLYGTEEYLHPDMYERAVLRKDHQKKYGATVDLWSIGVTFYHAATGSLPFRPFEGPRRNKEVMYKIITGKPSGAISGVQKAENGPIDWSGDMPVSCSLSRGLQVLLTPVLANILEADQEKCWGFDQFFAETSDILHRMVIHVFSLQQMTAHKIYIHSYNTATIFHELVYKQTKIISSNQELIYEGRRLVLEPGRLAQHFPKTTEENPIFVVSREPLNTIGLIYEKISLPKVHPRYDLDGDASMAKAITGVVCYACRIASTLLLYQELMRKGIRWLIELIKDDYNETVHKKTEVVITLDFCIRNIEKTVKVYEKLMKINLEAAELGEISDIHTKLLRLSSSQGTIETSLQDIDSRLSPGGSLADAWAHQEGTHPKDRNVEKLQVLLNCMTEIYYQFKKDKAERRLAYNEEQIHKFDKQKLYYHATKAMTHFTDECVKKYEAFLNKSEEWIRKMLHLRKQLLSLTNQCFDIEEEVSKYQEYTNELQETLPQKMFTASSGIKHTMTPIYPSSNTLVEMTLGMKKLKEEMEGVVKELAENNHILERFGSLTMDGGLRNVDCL

IKKε, sequence (Q14164 whole entry): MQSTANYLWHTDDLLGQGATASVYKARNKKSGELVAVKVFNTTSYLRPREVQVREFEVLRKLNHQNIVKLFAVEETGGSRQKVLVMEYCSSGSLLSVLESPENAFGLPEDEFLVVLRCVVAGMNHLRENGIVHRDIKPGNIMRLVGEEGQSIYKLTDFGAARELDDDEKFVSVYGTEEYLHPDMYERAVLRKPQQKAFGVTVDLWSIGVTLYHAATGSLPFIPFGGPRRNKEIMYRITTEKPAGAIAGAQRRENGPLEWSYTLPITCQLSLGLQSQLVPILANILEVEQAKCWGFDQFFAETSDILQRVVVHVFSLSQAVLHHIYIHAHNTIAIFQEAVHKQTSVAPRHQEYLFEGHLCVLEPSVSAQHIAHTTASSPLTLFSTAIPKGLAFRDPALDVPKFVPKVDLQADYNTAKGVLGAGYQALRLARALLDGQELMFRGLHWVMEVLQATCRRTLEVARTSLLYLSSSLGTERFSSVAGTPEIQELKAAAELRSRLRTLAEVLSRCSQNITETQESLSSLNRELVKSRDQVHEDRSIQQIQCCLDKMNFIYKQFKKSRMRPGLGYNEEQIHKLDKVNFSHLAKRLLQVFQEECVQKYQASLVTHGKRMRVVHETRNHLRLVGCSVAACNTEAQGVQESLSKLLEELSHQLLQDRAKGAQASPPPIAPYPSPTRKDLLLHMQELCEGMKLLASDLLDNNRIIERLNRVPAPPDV
hJAK2, sequence (O60674 whole entry): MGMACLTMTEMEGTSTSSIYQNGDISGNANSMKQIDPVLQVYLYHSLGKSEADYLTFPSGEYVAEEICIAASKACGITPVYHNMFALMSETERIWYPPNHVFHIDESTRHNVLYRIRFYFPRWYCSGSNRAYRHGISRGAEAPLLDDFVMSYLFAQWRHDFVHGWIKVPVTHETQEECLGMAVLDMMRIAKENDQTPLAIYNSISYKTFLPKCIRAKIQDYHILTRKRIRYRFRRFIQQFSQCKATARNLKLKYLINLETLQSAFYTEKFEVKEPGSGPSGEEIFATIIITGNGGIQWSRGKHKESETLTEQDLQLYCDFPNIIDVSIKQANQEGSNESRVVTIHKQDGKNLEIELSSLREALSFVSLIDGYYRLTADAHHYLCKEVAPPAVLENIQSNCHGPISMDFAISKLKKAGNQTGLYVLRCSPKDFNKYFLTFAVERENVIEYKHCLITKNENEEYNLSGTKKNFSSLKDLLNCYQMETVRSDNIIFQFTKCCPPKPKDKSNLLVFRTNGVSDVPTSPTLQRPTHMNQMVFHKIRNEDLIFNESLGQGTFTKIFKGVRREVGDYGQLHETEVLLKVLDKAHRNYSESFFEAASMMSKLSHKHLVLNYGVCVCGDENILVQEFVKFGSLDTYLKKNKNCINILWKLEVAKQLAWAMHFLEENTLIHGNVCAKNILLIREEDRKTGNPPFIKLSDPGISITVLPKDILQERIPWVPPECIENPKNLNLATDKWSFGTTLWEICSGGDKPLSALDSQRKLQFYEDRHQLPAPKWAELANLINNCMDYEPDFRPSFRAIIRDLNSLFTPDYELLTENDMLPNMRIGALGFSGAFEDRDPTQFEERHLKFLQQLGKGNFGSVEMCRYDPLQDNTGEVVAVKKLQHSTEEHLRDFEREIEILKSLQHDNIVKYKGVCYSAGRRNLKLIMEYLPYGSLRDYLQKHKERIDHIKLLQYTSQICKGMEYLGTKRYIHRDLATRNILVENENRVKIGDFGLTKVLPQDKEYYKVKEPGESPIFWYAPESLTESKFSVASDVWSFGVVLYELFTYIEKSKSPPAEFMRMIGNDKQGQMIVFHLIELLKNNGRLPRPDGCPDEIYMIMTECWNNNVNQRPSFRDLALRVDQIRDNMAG

| Structure (SMILES) | IC50 (IKKε) | IC50 (hJAK2) | IC50 (TBK1) |
| --- | --- | --- | --- |
| CS(=O)(=O)c1ccc(Nc2ncnc(-c3ccc(OC4CCN(C(=O)CO)CC4)c(C#N)c3)n2)cc1 [Example 57, 2-((1-(2-hydroxyacetyl)piperidin-4-yl)oxy)-5-(4-((4-(methylsulfonyl)phenyl)amino)-1,3,5-triazin-2-yl)benzonitrile] | 8 nM | > 1000 nM | 5 nM |
| Cn1ccc(Nc2ncnc(-c3ccc(OC4CCOCC4)c(C#N)c3)n2)n1 [Example 59, 5-(4-((1-methyl-1H-pyrazol-3-yl)amino)-1,3,5-triazin-2-yl)-2-((tetrahydro-2H-pyran-4-yl)oxy)benzonitrile] | 83 nM | > 1000 nM | 55 nM |
| CN1CCN(c2cccc(Nc3ncnc(-c4ccc(OC5CCOCC5)c(C#N)c4)n3)c2)CC1 [Example 62, 5-(4-((3-(4-methylpiperazin-1-yl)phenyl)amino)-1,3,5-triazin-2-yl)-2-((tetrahydro-2H-pyran-4-yl)oxy)benzonitrile] | 3 nM | > 1000 nM | 5 nM |
| N#Cc1cc(-c2ncnc(Nc3cccc(N4CCOCC4)c3)n2)ccc1OC1CCOCC1 [Example 63, 5-(4-((3-morpholinophenyl)amino)-1,3,5-triazin-2-yl)-2-((tetrahydro-2H-pyran-4-yl)oxy)benzonitrile] | 8 nM | 938 nM | 4 nM |
| N#Cc1cc(-c2ncnc(Nc3ccc(C4CCN(CC(F)F)CC4)cc3)n2)ccc1OC1CCOCC1 [Example 65, 5-(4-((4-(1-(2,2-difluoroethyl)piperidin-4-yl)phenyl)amino)-1,3,5-triazin-2-yl)-2-((tetrahydro-2H-pyran-4-yl)oxy)benzonitrile] | 11 nM | > 1000 nM | 4 nM |
| N#Cc1cc(-c2ncnc(Nc3ccc(C(=O)C(F)(F)F)cc3)n2)ccc1OC1CCOCC1 [Example 68, 2-((tetrahydro-2H-pyran-4-yl)oxy)-5-(4-((4-(2,2,2-trifluoroacetyl)phenyl)amino)-1,3,5-triazin-2-yl)benzonitrile] | 11 nM | 415 nM | 2 nM |
| COc1ccc(Nc2ncnc(-c3ccc(OC4CCOCC4)c(C#N)c3)n2)cc1 [Example 72, 5-(4-((4-methoxyphenyl)amino)-1,3,5-triazin-2-yl)-2-((tetrahydro-2H-pyran-4-yl)oxy)benzonitrile] | 21 nM | > 1000 nM | 5 nM |
| Cn1nccc1Nc1ncnc(-c2ccc(OC3CCOCC3)c(C#N)c2)n1 [Example 73, 5-(4-((1-methyl-1H-pyrazol-5-yl)amino)-1,3,5-triazin-2-yl)-2-((tetrahydro-2H-pyran-4-yl)oxy)benzonitrile] | 202 nM | > 1000 nM | 90 nM |
| N#Cc1cc(-c2ncnc(Nc3ccc(C(=O)NC4COC4)cc3)n2)ccc1OC1CCOCC1 [Example 75, 4-((4-(3-cyano-4-((tetrahydro-2H-pyran-4-yl)oxy)phenyl)-1,3,5-triazin-2-yl)amino)-N-(oxetan-3-yl)benzamide] | 12 nM | 899 nM | 3 nM |
| CN1CCC(c2ccc(Nc3ncnc(-c4ccc(OC5CCOCC5)c(C#N)c4)n3)cc2)CC1 [Example 76, 5-(4-((4-(1-methylpiperidin-4-yl)phenyl)amino)-1,3,5-triazin-2-yl)-2-((tetrahydro-2H-pyran-4-yl)oxy)benzonitrile] | 3 nM | 575 nM | 1 nM |
| COc1ccc(Nc2ncnc(-c3ccc(OC4CCOCC4)c(C#N)c3)n2)cn1 [Example 77, 5-(4-((6-methoxypyridin-3-yl)amino)-1,3,5-triazin-2-yl)-2-((tetrahydro-2H-pyran-4-yl)oxy)benzonitrile] | 55 nM | > 1000 nM | 21 nM |

More lines, now with the values ahead:

| IC50 (IKKε) | IC50 (hJAK2) | IC50 (TBK1) | Structure (SMILES) |
| --- | --- | --- | --- |
| 3 nM | > 1000 nM | 2 nM | N#Cc1cc(-c2ncnc(Nc3ccc(C4CCN(C5COC5)CC4)cc3)n2)ccc1OC1CCN(C(=O)CO)CC1 [Example 56, 2-((1-(2-hydroxyacetyl)piperidin-4-yl)oxy)-5-(4-((4-(1-(oxetan-3-yl)piperidin-4-yl)phenyl)amino)-1,3,5-triazin-2-yl)benzonitrile] |
| 4 nM | 455 nM | 2 nM | N#Cc1cc(-c2ncnc(Nc3ccc(N4CCN(C5COC5)CC4)cc3)n2)ccc1OCC1CC1 [Example 58, 2-(cyclopropylmethoxy)-5-(4-((4-(4-(oxetan-3-yl)piperazin-1-yl)phenyl)amino)-1,3,5-triazin-2-yl)benzonitrile] |
| 7 nM | 655 nM | 3 nM | N#Cc1cc(-c2ncnc(Nc3ccc(N4CCN(C5COC5)CC4)cc3)n2)ccc1OC1CCC(F)(F)CC1 [Example 60, 2-((4,4-difluorocyclohexyl)oxy)-5-(4-((4-(4-(oxetan-3-yl)piperazin-1-yl)phenyl)amino)-1,3,5-triazin-2-yl)benzonitrile] |
| 5 nM | 345 nM | 2 nM | CS(=O)(=O)N1CCN(c2ccc(Nc3ncnc(-c4ccc(OC5CCOCC5)c(C#N)c4)n3)cc2)CC1 [Example 66, 5-(4-((4-(4-(methylsulfonyl)piperazin-1-yl)phenyl)amino)-1,3,5-triazin-2-yl)-2-((tetrahydro-2H-pyran-4-yl)oxy)benzonitrile] |
| 6 nM | 802 nM | 2 nM | N#Cc1cc(-c2ncnc(Nc3ccc(N4CCN(C5COC5)CC4)cc3)n2)ccc1OC1CCOCC1 [Example 67, 5-(4-((4-(4-(oxetan-3-yl)piperazin-1-yl)phenyl)amino)-1,3,5-triazin-2-yl)-2-((tetrahydro-2H-pyran-4-yl)oxy)benzonitrile] |
| 4 nM | > 1000 nM | 6 nM | N#Cc1cc(-c2ncnc(Nc3cccc(N4CCN(C5COC5)CC4)c3)n2)ccc1OC1CCOCC1 [Example 69, 5-(4-((3-(4-(oxetan-3-yl)piperazin-1-yl)phenyl)amino)-1,3,5-triazin-2-yl)-2-((tetrahydro-2H-pyran-4-yl)oxy)benzonitrile] |
| 70 nM | 918 nM | 28 nM | N#Cc1cc(-c2ncnc(Nc3ccc(N4CCN(C5COC5)CC4)cc3)n2)ccc1OC1CCN(C(=O)C2(O)CC2)CC1 [Example 70, 2-((1-(1-hydroxycyclopropanecarbonyl)piperidin-4-yl)oxy)-5-(4-((4-(4-(oxetan-3-yl)piperazin-1-yl)phenyl)amino)-1,3,5-triazin-2-yl)benzonitrile] |
| 10 nM | > 1000 nM | 2 nM | COc1cc(Nc2ncnc(-c3ccc(OC4CCOCC4)c(C#N)c3)n2)ccc1C(=O)N1CCN(C2COC2)CC1 [Example 71, 5-(4-((3-methoxy-4-(4-(oxetan-3-yl)piperazine-1-carbonyl)phenyl)amino)-1,3,5-triazin-2-yl)-2-((tetrahydro-2H-pyran-4-yl)oxy)benzonitrile] |
| 12 nM | > 1000 nM | 3 nM | N#Cc1cc(-c2ncnc(Nc3cc(F)c(N4CCN(C5COC5)CC4)c(F)c3)n2)ccc1OC1CCOCC1 [Example 74, 5-(4-((3,5-difluoro-4-(4-(oxetan-3-yl)piperazin-1-yl)phenyl)amino)-1,3,5-triazin-2-yl)-2-((tetrahydro-2H-pyran-4-yl)oxy)benzonitrile] |
